PubChem BioAssay AID743417 (Broad Institute, 2014)
Results filed as inconclusive are left out. Activity calls are given as the source filed them.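 The calls were made as follows: active = compounds lowering the luciferase signal with a fitted half-maximal dose at most twice their top valid dose (cut at about 30 µM in these data); inconclusive = flat fits with moderate signal loss, or poor fits; inactive = the rest.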

What follows are compounds tested on Clone20 osteoblast Shn3 3'UTR firefly luciferase, 24 h (assay: Schnurri-3 3'UTR-luciferase signal suppressors – cell-based, Clone20 osteoblasts, luminescence, dry powder, set 2, dose response (AID 743417)).

| Structure (SMILES) | AC50 |
| --- | --- |
| CC(C)CCNc1nc(N)c([N+](=O)[O-])c(N2CCCCCC2)n1 | 8.79 µM |
| O=C(OCCOc1ccc(Cl)cc1)c1cc(S(=O)(=O)N2CCCCC2)ccc1N1CCOCC1 | 1.97 µM |
| CCC1CCCCN1S(=O)(=O)c1ccc(NC(=O)c2ccncc2)cc1 (centres undefined) | 3.43 µM |
| CCCOc1ccc(C(=O)C(CN2CCCC2)c2ccccc2)cc1 (centres undefined) | 4.84 µM |
| COc1ccc(CS(=O)(=O)/C(Cl)=C(/Cl)C(=O)Nc2ccc(OC)nc2)cc1 | < 0.26 µM |
| Cc1ccc(C(=O)Nc2cccc3[nH]c(C(F)(F)F)nc23)cc1 | 3.93 µM |
| O=C1[C@H]2[C@@H](c3ccc(F)cc3)N3C(=O)N(c4ccccc4)C(=O)[C@@]3(Cc3ccccc3)[C@H]2C(=O)N1C1CCCCC1 | > 70 µM (inactive) |
| O=C(OCCN1C(=O)c2cccc3c(N4CCOCC4)ccc(c23)C1=O)c1ccccc1Cl | 3.06 µM |
| CC(C)(C)NC(=O)CSc1nc2ccc(NC(=O)CSc3nnnn3Cc3ccccc3)cc2s1 | 3.26 µM |
| CN(C)c1ncnc2c1C(c1ccccc1)C(C)(C)O2 (centres undefined) | > 70 µM (inactive) |
| COc1cc(SC)ccc1C(=O)Nc1nc(C)cs1 | 7.09 µM |
| CCn1cc(CN(C)S(=O)(=O)c2ccc3ccccc3c2)c(C)n1 | 1.56 µM |
| CCOC(=O)C1CCCN(C(=O)Cn2sc3nc(C)cc(C)c3c2=O)C1 (centres undefined) | 12.5 µM |
| O=C(C1=C[C@@H](C2CC2)C[C@@H](OCCCCO)O1)N1CCN(Cc2ccccc2)CC1 | > 70 µM (inactive) |
| Cc1ccc(S(=O)(=O)NCCc2cc3ccc(C)cc3[nH]c2=O)cc1 | > 70 µM (inactive) |
| Cc1cccc(CSc2cccc3cccnc23)c1 | 2.54 µM |
| CC(=O)N1CCN(C(=O)CCc2cc(C(C)(C)C)c(O)c(C(C)(C)C)c2)CC1 | 4.46 µM |
| COCCn1c(CN2CCN(c3cccc(Cl)c3)CC2)nc2c1c(=O)n(C)c(=O)n2C | 10.7 µM |
| O=C1C(Br)=C(c2ccccc2)C(c2ccccc2)=C1c1ccccc1 | 0.46 µM |
| CCOC(=O)c1c(C)[nH]c2c1-c1ccccc1C(=O)C2=O | 0.496 µM |
| CC(C)c1ccccc1-n1c(SCC(=O)N2CCc3ccccc3C2)nc2ccccc2c1=O | 2.99 µM |
| COc1cc(NC(=O)NCc2ccco2)ccc1-c1ccc(NC(=O)NCc2ccco2)cc1OC | 3.19 µM |
| CSc1cccc(NS(=O)(=O)c2ccc3c(c2)CCN3C(C)=O)c1 | 1.49 µM |
| CC(C)(O)C#Cc1ccc([C@@H]2C[C@H]3CN(c4ccccc4)C(=O)[C@]34CCCN24)s1 | 4.93 µM |
| CCN(CC)CCNC(=O)CSc1c2c(nc3cc(Cl)ccc13)CCCC2 | 14.9 µM |

| Structure (SMILES) | AC50 |
| --- | --- |
| CCOC(=O)c1oc2ccc(S(=O)(=O)n3nc(-c4ccccc4)cc3N)cc2c1C | 0.854 µM |
| Cc1cc(C(=O)NC2CCCc3c2cnn3-c2cccc(C)c2C)n(C)n1 (centres undefined) | < 0.26 µM |
| O=C(N[C@@H]1C/C=C\C[C@H](CC(=O)N(CCO)Cc2ccccc2)C(=O)NC[C@@H](c2ccccc2)OC1=O)OCC1c2ccccc2-c2ccccc21 | 4.5 µM |
| CC1Cc2cc(S(=O)(=O)N3CCC(C(=O)N4CCN(c5ccccc5F)CC4)CC3)ccc2N1C(=O)C1CC1 (centres undefined) | 1.65 µM |
| CCCCN1CC(COCc2ccccc2)Oc2cccc(Oc3ccc(C(C)C)cc3)c2S1(=O)=O (centres undefined) | 5.03 µM |
| CCOC(=O)Oc1c(OC)cc(C(=O)O[C@@H]2C[C@@H]3CN4CCc5c([nH]c6cc(OC)ccc56)[C@H]4C[C@@H]3[C@H](C(=O)OC)[C@H]2OC)cc1OC | 10.7 µM |
| COc1cc(NS(C)(=O)=O)ccc1Nc1c2ccccc2nc2ccccc12 | 1.32 µM |
| Cc1cccc(CS(=O)(=O)c2ncc(Cl)c(C(=O)Nc3ccc(F)cc3)n2)c1 | 0.55 µM |
| CCOc1ccc(N(C)S(=O)(=O)c2cc(-c3cc(C)no3)ccc2C(C)C)cc1 | 4.13 µM |
| C[C@@H]1CCCCO[C@H](CN(C)Cc2ccccc2)[C@@H](C)CN([C@H](C)CO)C(=O)c2cc(NC(=O)c3ccccc3)ccc2O1 | 31.3 µM |
| CC(C)(C)c1ccc(C(=O)NCCCN2CCN(CCCNC(=O)c3ccc(C(C)(C)C)cc3)CC2)cc1 | 4.84 µM |
| COC1CC2C=C(C)C=CC=CC(=O)NC(c3ccccc3)CC=CCCC(O)CC(=O)C2=C1O (centres undefined) | 0.629 µM |
| CC1CCN(c2ccccc2NC(=S)NC(=O)c2ccc(-c3cccc([N+](=O)[O-])c3)o2)CC1 | 3.07 µM |
| Cc1ccc2cc(CN(CC3CCCO3)C(=O)NC3CCCCC3)c(=O)[nH]c2c1C (centres undefined) | 4.49 µM |
| O=S(=O)(c1ccc2c(c1)OCCO2)N1CCN(c2ncnc3sccc23)CC1 | 1.45 µM |
| Cc1ccc(C)c(NC(=O)CN(C)C(=O)c2cccc(S(=O)(=O)N3CCN(Cc4ccccc4)CC3)c2)c1 | 3.5 µM |
| CC(=O)OCCCNc1cc(Sc2ccc(C)cc2)c2nonc2c1[N+](=O)[O-] | 1.1 µM |
| O=C(Nc1nc2ccccc2s1)C1CCN(S(=O)(=O)c2cc([N+](=O)[O-])ccc2Cl)CC1 | 3.07 µM |
| CC(C)c1ccc(/C=C(\c2nc3ccccc3[nH]2)S(=O)(=O)c2ccccc2)cc1 | 4.01 µM |
| Cc1cc(=O)oc2c3c(cc(OCC(=O)Nc4ccc(CCO)cc4)c12)OC(C)(C)CC3 | > 70 µM (inactive) |
| COc1ccc(CNC(=O)c2nc(S(=O)(=O)Cc3ccccc3)ncc2Cl)cc1 | 0.956 µM |
| CCC(=O)NC(c1ccc(OC)c(OC)c1)c1cc(Cl)c2cccnc2c1O (centres undefined) | < 0.26 µM |
| O=C(/C=C1\C(=O)Nc2ccccc21)/C=C1\C(=O)Nc2ccccc21 | 9.5 µM |
| CCOc1ccc(/C=C/[N+](=O)[O-])c2ccccc12 | 4.27 µM |
| COc1ccc(-n2nc3c(N4CCC(C(=O)NCC(C)c5ccccc5)CC4)nnc(C)c3c2C)cc1 (centres undefined) | 3.25 µM |

| Structure (SMILES) | AC50 |
| --- | --- |
| CC(=O)c1cccc(NS(=O)(=O)c2ccc(N/C=C\C(=O)c3ccc(C)cc3)cc2)c1 | 1.51 µM |
| CC(C)CCC(C(=O)O)C(C)CC(=O)NNC(=O)c1ccco1 (centres undefined) | > 70 µM (inactive) |
| CCC(C)(O)C(=O)OC1C(=O)OC2CC3C(C)=CC(=O)C(O)C3(C)C3C4(O)OCC23C1C(C)C4O (centres undefined) | 0.866 µM |
| CCOC(=O)c1cnc(-n2nc(C)cc2C)nc1NNc1cc(C)nc(-c2ccccc2)n1 | 3.31 µM |
| COc1cc(C#Cc2c(-c3cncn3C)n(C)c3ccc(-c4ccc(OC)nc4)cc23)cc(OC)c1 | 20.5 µM |
| Cn1c(SCc2cccc(Br)c2)nc2ccccc2c1=O | 7.68 µM |
| COCCN(C(=O)COC(=O)C1CCC(C(C)(C)C)CC1)c1c(N)n(Cc2ccccc2)c(=O)[nH]c1=O (centres undefined) | 5.15 µM |
| O=C(Nc1ccc2nc3n(c(=O)c2c1)CCCC3)c1cc([N+](=O)[O-])ccc1F | 0.361 µM |
| O=c1c2ccccc2nc2n1C(CSCc1cccc(C(F)(F)F)c1)CS2 (centres undefined) | 1.68 µM |
| COc1cccc(N2CCN(c3ncnc4c3cnn4-c3ccc(C)cc3C)CC2)c1 | 4.65 µM |
| Cc1ccccc1OCCn1cc(C(=S)N2CCCC2)c2ccccc21 | 24.3 µM |
| O=C(Nc1ccc2nc3n(c(=O)c2c1)CCCCC3)c1cc([N+](=O)[O-])ccc1F | 14.1 µM |
| C[C@H]1C[C@@H](C)C(=O)[C@@H]([C@H](O)CC2CC(=O)NC(=O)C2)C1 | 0.307 µM |
| Cc1cc(Cl)n2c(nc3ccccc32)c1C#N | 1.85 µM |
| COc1ccc(C(CCNCc2ccc(OC(C)C)cc2)c2ccccc2OC)cc1 (centres undefined) | 6.44 µM |
| CCOC(=O)N1CCN(CC(c2ccccc2)c2ccccc2)CC1 | 14.1 µM |
| O=C(Nc1ccccc1Cc1ccccc1)c1ccccc1NS(=O)(=O)c1ccc(Cl)s1 | 8.18 µM |
| CC(=O)NC(c1ccc(Cl)cc1)c1ccc2cccnc2c1O (centres undefined) | 0.299 µM |
| CN1/C(=C\C(=O)CN2C(=O)NC3(CCCCCC3)C2=O)C(C)(C)c2ccccc21 | 2.66 µM |
| COc1cccc(-c2cc(N3CCN(C(=O)c4ccoc4)CC3)n3nc(-c4cccc(Cl)c4)cc3n2)c1 | 6.22 µM |
| CCc1c(C)nc2ncnn2c1NCCc1ccc(Cl)cc1 | 2.17 µM |
| O=C(c1ccc(S(=O)(=O)c2ccccc2Cl)c([N+](=O)[O-])c1)N1CCN(Cc2ccccc2)CC1 | 5.77 µM |
| O=C(CC(O)(C(F)(F)F)C(F)(F)F)Nc1ccc(Cl)c(Cl)c1 | 4.97 µM |
| CCC12CN(S(=O)(=O)c3ccc(C)cc3)CC(CC)(CN(S(=O)(=O)c3ccc(C)cc3)C1)C2=O | 3.48 µM |
| CCn1c(/C=C/c2ccc([N+](=O)[O-])o2)nc2ccccc2c1=O | 4.51 µM |

| Structure (SMILES) | AC50 |
| --- | --- |
| COc1ccc(CCNc2ncnc3sccc23)cc1OC | < 0.26 µM |
| CCc1ccc(CNCc2ccc(OCC(O)CN(C)Cc3ccccc3)cc2)nc1 (centres undefined) | 4.43 µM |
| Cc1ccc(S(=O)(=O)N2C[C@@H]3CCCC[C@@H]3[C@@H](C)[C@H]2c2cn(Cc3ccccc3)c3ncccc23)cc1 | 1.92 µM |
| Cc1nc2nc(C)n(CCN3CCOCC3)c(=O)c2c(-c2cccc([N+](=O)[O-])c2)c1C(=O)CCCCCCCCCCN1CCC(c2ccccc2)(c2ccccc2)CC1 | 7.38 µM |
| COc1ccccc1NC(=O)Cn1c(C)cc(=O)c2cccc(OC)c21 | 3.16 µM |
| CN(c1ccccc1)S(=O)(=O)c1ccc(NC(=O)c2nc(S(C)(=O)=O)ncc2Cl)cc1 | 0.502 µM |
| CCc1nc(N2CCN(C(C)=O)CC2)c2c3c(sc2n1)CC(C(C)(C)C)CC3 (centres undefined) | 6.76 µM |
| Cc1cc2nc(C)n(CCCNC(=O)Nc3cccc4ccccc34)c2cc1C | 3.19 µM |
| Cc1ccccc1OCC(O)CNC1CCC(NCC(O)COc2ccccc2C)CC1 (centres undefined) | 4.5 µM |
| CC(CCc1ccccc1)NC(=O)COC(=O)c1ccc(S(C)(=O)=O)c([N+](=O)[O-])c1 (centres undefined) | 3.34 µM |
| CC1(Cc2ccc(OC(F)(F)F)cc2)C(=O)Nc2c(Cl)ccc(Cl)c21 (centres undefined) | 25.7 µM |
| O=c1c2ccccc2nc2n1C(CSCc1ccc(Cl)cc1Cl)CS2 (centres undefined) | 1.45 µM |
| CCc1nnc(NC(=O)c2nc(S(=O)(=O)Cc3ccc(C)cc3)ncc2Cl)s1 | 3.01 µM |
| COCCN(CC(=O)NC1CCCCC1)C(=O)/C=C/C(=O)c1ccc(OC)cc1O | 2.58 µM |
| CCCC(=O)OCCNc1cc(Sc2nc3ccccc3[nH]2)c2nonc2c1[N+](=O)[O-] | 6.63 µM |
| CCOc1cc(/C=C2/C(=O)ON=C2C)ccc1OCc1ccccc1F | 6.95 µM |
| CCC1CCCCN1C(=O)c1cc(COc2ccc3ncccc3c2)on1 (centres undefined) | 0.46 µM |
| CC(=O)N(CCc1ccccc1)c1ccc2c(c1)C1CC2CCN1C(=O)OCc1ccccc1 (centres undefined) | 14.3 µM |
| Oc1cccc(C(Nc2nccs2)c2ccc3cccnc3c2O)c1 (centres undefined) | 1.67 µM |
| COc1ccc(OCC(=O)NNC(=S)NC(=O)c2ccc(Br)o2)cc1 | 5.27 µM |
| CCOC(=O)c1c2c(n(C)c1C)C(=O)C(=O)c1ccc(Br)cc1-2 | 1.01 µM |
| CN(C)CC(C(=O)c1ccccc1)c1ccccc1 (centres undefined) | 2.8 µM |
| NC(=O)CC(NC(=O)c1ccc(Br)cc1)c1ccc(N2CCC(Br)CC2)c([N+](=O)[O-])c1 (centres undefined) | 4.19 µM |
| COc1cc2c(OC(C)=O)c3c(c(-c4ccc5c(c4)OCO5)c2cc1OC)C(=O)OC3 | 1.8 µM |
